Data taken from publication PMC9495348, “Polyfunctionalized α-Phenyl-tert-butyl(benzyl)nitrones: Multifunctional Antioxidants for Stroke Treatment” (Antioxidants, 2022).

What was measured:
[1] = Inhibition of linoleic acid peroxidation (ILPO) induced by AAPH; conditions: compounds assayed at 100 µM; n.a. = not active
[2] = ABTS+ decolorization assay in ethanolic solution; conditions: compounds assayed at 100 µM; n.a. = not active
[3] = Competition of the tested compounds with DMSO for hydroxyl radicals; conditions: compounds assayed at 100 µM; n.a. = not active; no = no activity
[4] = DPPH radical-scavenging assay; conditions: compounds assayed at 100 µM, DPPH 70 µM, 90 min; no = no activity
Procedure: The assay was performed as previously described by incubating compounds at a concentration of 100 µM in the presence of 2,2-diphenyl-1-picrylhydrazyl radical (DPPH, 70 µM) in methanol for 90 min, protected from sun light. The absorbance at 517 nm was then determined using a Synergy™ H4 microplate reader (BioTek Instruments, Inc., Winooski, VT, USA). The experiments were performed in triplicate, and the blank (compound without DPPH) was substracted. The percentage of DPPH free radicals was calculated using the equation DPPH free radicals (%) = ((A0 − A1)/A0) × 100, where A0 is the absorbance of MeOH and A1 is the absorbance of the compound. Trolox and resveratrol were used as positive controls.

[5] = target: T1, soybean lipoxygenase (Glycine max, UniProt P08170); experiment: In vitro inhibition of soybean LOX; type: biochemical; conditions: for IC50: soybean LOX, sodium linoleate 0.1 mM
T1 construct: purchased Aldrich Chemical Co. Milwaukee, WI, (USA)
T1 sequence (P08170 1-839): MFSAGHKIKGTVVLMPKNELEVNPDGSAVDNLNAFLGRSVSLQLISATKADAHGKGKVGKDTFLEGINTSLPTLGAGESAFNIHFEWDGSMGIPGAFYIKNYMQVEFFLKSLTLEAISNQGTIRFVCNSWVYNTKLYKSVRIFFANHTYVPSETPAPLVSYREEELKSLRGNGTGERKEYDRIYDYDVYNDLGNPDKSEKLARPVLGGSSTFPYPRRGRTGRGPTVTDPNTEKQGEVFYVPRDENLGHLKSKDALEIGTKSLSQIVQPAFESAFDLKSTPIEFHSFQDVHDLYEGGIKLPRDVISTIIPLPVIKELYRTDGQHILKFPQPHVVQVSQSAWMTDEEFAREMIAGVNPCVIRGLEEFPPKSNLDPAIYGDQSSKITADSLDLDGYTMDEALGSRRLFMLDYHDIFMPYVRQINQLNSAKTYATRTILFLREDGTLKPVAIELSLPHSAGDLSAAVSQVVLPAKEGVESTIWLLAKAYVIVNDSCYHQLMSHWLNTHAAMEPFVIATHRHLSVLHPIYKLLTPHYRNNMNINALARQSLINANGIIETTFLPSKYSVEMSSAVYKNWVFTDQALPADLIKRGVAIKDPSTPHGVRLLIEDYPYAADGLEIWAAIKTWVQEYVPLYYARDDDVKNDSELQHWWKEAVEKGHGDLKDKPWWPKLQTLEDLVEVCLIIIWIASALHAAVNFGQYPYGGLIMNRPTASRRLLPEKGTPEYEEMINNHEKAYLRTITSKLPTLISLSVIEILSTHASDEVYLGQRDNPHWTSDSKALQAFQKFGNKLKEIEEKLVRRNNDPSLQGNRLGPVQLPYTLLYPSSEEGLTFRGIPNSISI
Procedure: The in vitro study was performed as previously described. The compounds were incubated at room temperature with sodium linoleate (0.1 mM) and 0.2 mL of soybean lipoxygenase solution (1/9 × 10^–4 w/v in phosphate buffer saline). The method was based on the conversion of sodium linoleate to 13-hydroperoxylinoleic acid, which was detected by measuring absorbance at 234 nm. […] To determine the IC50 values, serial dilutions of compounds were used. Blank determination served as a negative control.

[6] = target: T2, Aβ1–42 (Homo sapiens, UniProt P05067); experiment: Inhibition of Aβ1–42 aggregation, Thioflavin-T assay; type: biochemical; conditions: 10 µM compound and 1.5 µM Aβ1–42, ThT assay
T2 construct: HFIP-pretreated Aβ1–42 peptide Merck Millipore, Darmstadt, Germany; purchased Merck Millipore, Darmstadt, Germany
T2 sequence (P05067 672-713): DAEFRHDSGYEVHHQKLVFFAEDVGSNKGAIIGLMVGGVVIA
Procedure: Thioflavin-T (ThT) assay was performed to investigate the effect of the compounds on the aggregation of Aβ1–42 (HFIP-pretreated Aβ1–42 peptide Merck Millipore, Darmstadt, Germany). Prior to the incubations, 1 mM Aβ1–42 peptide stock solution in DMSO was diluted in 150 mM HEPES buffer (pH = 7.4, 150 mM NaCl) to obtain a concentration of 7.5 μM. Subsequently, 20 µL of Aβ1–42 ([…]) was mixed with the compounds (10 µM, final concentration) on black-walled 96-well plates and diluted with ThT solution (14.3 μM stock solution in HEPES-buffered solution; 10 μM final concentration). The final volume of the mixture was 100 μL, and the DMSO concentration was always 3% (v/v). Each sample was prepared in four technical replicates. ThT fluorescence (λex = 440 nm, λem = 490 nm) was measured using a microplate reader (Synergy™ H4, BioTek Instruments, Inc., Winooski, VT, USA) for 36–48 h. Inhibition of Aβ1–42 aggregation was expressed as the percent inhibition (% inh = (1 − Fi/F0) × 100), where Fi is the increase in fluorescence of compound-treated Aβ1–42, and F0 is the increase in fluorescence of non-treated Aβ1–42.

[7] = system: SH-SY5Y neuroblastoma cells; experiment: Neuroprotection against okadaic acid, MTT cell viability; type: cell-based; conditions: okadaic acid 20 nM for 20 h, compounds 0.3–10 µM
[8] = compounds assayed at 100 µM, n.a. = not active, no = no activity under the experimental conditions

| SMILES | ILPO (%) [1] [%] | ABTS+ (%) [2] [%] | OH Scav. Capacity (%) [3] | DPPH [4] | inhibition at 100 µM [5, 8] [%] | inhibition at 10 µM [6] [%] | neuroprotective effect (augmented OA-reduced cell viability) [7] | IC50 [5] [µM] | LOX Inhibition (%) [5, 8] |
| --- | --- | --- | --- | --- | --- | --- | --- | --- | --- |
| CC(C)(C)/[N+]([O-])=C/c1ccccc1 [PBN, α-phenyl-N-tert-butylnitrone, reference compound] | 11 | 5 | no | no | 23 |  |  |  |  |
| Cc1c(C)c2c(c(C)c1O)CCC(C)(C(=O)O)O2 (centres unmarked) [Trolox, reference compound] | 93 | 91 | 88% |  |  |  |  |  |  |
| [O-]/[N+](=C\c1ccc(OCCCN2CCCCC2)cc1)Cc1ccccc1 [nitrone 1, (Z)-N-Benzyl-1-(4-(3-(piperidin-1-yl)propoxy)phenyl)methanimine oxide] |  | 27 | 7% | 0 |  | 42.2 ± 5.7 | statistically significant at 10 µM | 60 |  |
| CC(C)(C)/[N+]([O-])=C/c1ccc(OCCCN2CCCCC2)cc1 [nitrone 2, (Z)-N-tert-Butyl-1-(4-(3-(piperidin-1-yl)propoxy)phenyl)methanimine oxide] |  |  | 54% | 0 |  |  |  |  |  |
| [O-]/[N+](=C\c1cccc(OCCCN2CCCCC2)c1)Cc1ccccc1 [nitrone 3, (Z)-N-Benzyl-1-(3-(3-(piperidin-1-yl)propoxy)phenyl)methanimine oxide] | 29 | 31 |  | 2 |  |  |  |  |  |
| CC(C)(C)/[N+]([O-])=C/c1cccc(OCCCN2CCCCC2)c1 [nitrone 4, (Z)-N-tert-Butyl-1-(3-(3-(piperidin-1-yl)propoxy)phenyl)methanimine oxide] | 45 | 23 | 54% | 0 | 37 |  |  |  |  |
| [O-]/[N+](=C\c1ccccc1OCCCN1CCCCC1)Cc1ccccc1 [nitrone 5, (Z)-N-Benzyl-1-(2-(3-(piperidin-1-yl)propoxy)phenyl)methanimine oxide] |  | 19 | 9% | 0 |  |  |  | 10 |  |
| CC(C)(C)/[N+]([O-])=C/c1ccccc1OCCCN1CCCCC1 [nitrone 6, (Z)-N-tert-Butyl-1-(2-(3-(piperidin-1-yl)propoxy)phenyl)methanimine oxide] |  |  | 13% | 0 | 39 |  |  |  |  |
| C#CCN1CCN(CCCOc2ccc(/C=[N+](\[O-])Cc3ccccc3)cc2)CC1 [nitrone 7, (Z)-N-Benzyl-1-(4-(3-(4-(prop-2-yn-1-yl)piperazin-1-yl)propoxy)phenyl) methanimine oxide] |  | 28 |  | 0 | 27.2 |  |  |  |  |
| C#CCN1CCN(CCCOc2ccc(/C=[N+](\[O-])C(C)(C)C)cc2)CC1 [nitrone 8, (Z)-N-tert-Butyl-1-(4-(3-(4-(prop-2-yn-1-yl)piperazin-1-yl)propoxy)phenyl) methanimine oxide] |  | 10 | 78% | 0 | 23.3 |  |  |  |  |
| C#CCN1CCN(CCCOc2cccc(/C=[N+](/[O-])Cc3ccccc3)c2)CC1 [nitrone 9, (E)-N-Benzyl-1-(3-(3-(4-(prop-2-yn-1-yl)piperazin-1-yl)propoxy)phenyl)methanimine oxide] |  |  | 81% | 1 |  |  |  | 100 |  |
| C#CCN1CCN(CCCOc2cccc(/C=[N+](\[O-])C(C)(C)C)c2)CC1 [nitrone 10, (Z)-N-tert-Butyl-1-(3-(3-(4-(prop-2-yn-1-yl)piperazin-1-yl)propoxy)phenyl) methanimine oxide] | 31 | 13 | 20% | 0 |  |  |  |  | no |
| C#CCN1CCN(CCCOc2ccccc2/C=[N+](\[O-])C(C)(C)C)CC1 [nitrone 12, (Z)-N-tert-Butyl-1-(2-(3-(4-(prop-2-yn-1-yl)piperazin-1-yl)propoxy)phenyl) methanimine oxide] | 31 | 13 | 9.8% |  | 25 |  |  |  |  |
